Data from patent US12441704B2, “Compounds active towards nuclear receptors” (NUEVOLUTION A/S, priority 2019, dated 2025).
Like-named read-outs stand apart in the source and are kept apart here.

Molecular target: T1, RORγ ligand-binding domain fused to Gal4 (Homo sapiens, UniProt P51449)
T1 construct: Gal4 (galactose-responsive transcription factor); expressed in transfected cells; host or cells: HEK293
T1 sequence (P51449 269-508 limits assumed): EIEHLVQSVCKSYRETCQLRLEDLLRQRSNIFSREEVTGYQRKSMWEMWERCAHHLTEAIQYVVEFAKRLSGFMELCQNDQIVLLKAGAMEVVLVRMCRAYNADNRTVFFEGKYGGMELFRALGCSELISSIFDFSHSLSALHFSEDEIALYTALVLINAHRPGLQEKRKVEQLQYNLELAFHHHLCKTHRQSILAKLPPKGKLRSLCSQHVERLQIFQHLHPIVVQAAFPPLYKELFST
Test: RORγ Reporter Assay (Gal4)
Assay type: cell-based
Method: The HEK293 cell line is co-transfected transiently with two plasmids, one with the RORγ ligand-binding domain fused to galactose-responsive transcription factor (Gal4), and the other with the luciferase reporter gene and Gal binding sites (UAS). This construction allows to determine the RORγ activity in a cellular system through the measurement of luminescence.
A suspension of RORγ reporter cells was dispensed into plates and cultured 2 h at 37° C. and 5% CO2. Media formulation consisted in DMEM/F-12 medium (Gibco) supplemented with 10% heat inactivated FBS (Sigma-Aldrich), non-essential aminoacids (Sigma-Aldrich), 2 mM Glutamax (Gibco) and 100 U/mL penicillin (Sigma-Aldrich). Dose-response curves with compounds were prepared in 100% DMSO and further diluted 100-fold in culture medium. Compound solutions were added to the plate containing cells (final DMSO concentration of 0.1%) and incubated for 24 h at 37° C. and 5% CO2. Luciferase detection reagent was added to each well, and relative light units (RLUs) were quantified from each assay well using a plate reading luminometer.
Values of average RLU±S.D. were computed for all treatment sets, followed by the calculations of percent-reduction of RORγ activity in response to respective test compound. The following formula was used: activity=100*[1−[x test compound/average vehicle] where the theoretical minimum reduction (0% reduction).

[1] = HEK293 cells co-transfected with RORγ LBD-Gal4 and luciferase reporter, 24 h incubation, absolute EC50, read-out: EC50

| EC50 [1] | Compound | other results |
| --- | --- | --- |
| 49 nM | NC(=O)CN1CCC(CNc2ncnc(N(Cc3ccc(C(F)(F)F)cc3)C3CC3)c2F)C(C(F)(F)F)C1 (single isomer, unassigned) [Example A7-07-1, 2-(4-(((6-(cyclopropyl(4-(trifluoromethyl)benzyl)amino)-5-fluoropyrimidin-4-yl)amino)methyl)-3-(trifluoromethyl)piperidin-1-yl)acetamide] |  |
| 93 nM | NC(=O)CN1CCC(CNc2ncnc(N(Cc3ccc(C(F)(F)F)cc3)C3CC3)c2F)C(C(F)(F)F)C1 (single isomer, unassigned) [Example A7-07-2, 2-(4-(((6-(cyclopropyl(4-(trifluoromethyl)benzyl)amino)-5-fluoropyrimidin-4-yl)amino)methyl)-3-(trifluoromethyl)piperidin-1-yl)acetamide] |  |
| 170 nM | NC(=O)CN1CCC(CNc2ncnc(N(Cc3ccc(C(F)(F)F)cc3)C3CC3)c2F)C(C(F)(F)F)C1 (single isomer, unassigned) [Example A7-07-4, 2-(4-(((6-(cyclopropyl(4-(trifluoromethyl)benzyl)amino)-5-fluoropyrimidin-4-yl)amino)methyl)-3-(trifluoromethyl)piperidin-1-yl)acetamide] |  |
| 51 nM | NC(=O)CN1CC[C@@H](CNc2ncnc(N(Cc3ccc(OC(F)F)cc3F)C3CCC3)c2F)[C@H](O)C1 (single isomer, unassigned) [Example A7-15-1] |  |
| 25 nM | NC(=O)CN1CC[C@@H](CNc2ncnc(N(Cc3ccc(C(F)(F)F)cc3)C3CCC3)c2F)[C@H](O)C1 (single isomer, unassigned) [Example A7-16-1] |  |
| 40 nM | NC(=O)CN1CC[C@H](CNc2ncnc(N(Cc3cnc(C(F)(F)F)nc3)C3CC3)c2F)[C@@H](O)C1 (single isomer, unassigned) [Example A7-17-1] | EC50 (compounds of the present disclosure, value from Table 2 herein, read-out: Gal4 assay EC50): < 100 nM |
| 140 nM | NC(=O)CN1CC[C@H](CNc2ncnc(N(Cc3cnc(C(F)(F)F)nc3)C3CCC3)c2F)[C@@H](O)C1 (single isomer, unassigned) [Example A7-18-1] |  |
| 82 nM | NC(=O)CN1CC[C@H](CNc2ncnc(N(Cc3cnc(C(F)(F)F)nc3)C3CCC3)c2F)[C@@H](O)C1 (single isomer, unassigned) [Example A7-18-2] |  |
| 35 nM | CN(Cc1ccc(C(F)(F)F)cc1)c1ncnc(NC[C@H]2CCN(CC(N)=O)C[C@@H]2O)c1F (single isomer, unassigned) [Example A7-20-1] |  |
| 32 nM | CN(Cc1ccc(C(F)(F)F)cc1)c1ncnc(NC[C@H]2CCN(CC(N)=O)C[C@@H]2O)c1F (single isomer, unassigned) [Example A7-20-2] |  |
| 9.3 nM | CCN(Cc1ccc(C(F)(F)F)cc1)c1ncnc(NC[C@H]2CCN(CC(N)=O)C[C@@H]2O)c1F (single isomer, unassigned) [Example A7-21-1] |  |
| 13 nM | CCN(Cc1ccc(C(F)(F)F)cc1)c1ncnc(NC[C@H]2CCN(CC(N)=O)C[C@@H]2O)c1F (single isomer, unassigned) [Example A7-21-2] |  |
| 4.9 nM | NC(=O)CN1CC[C@H](CNc2ncnc(N(Cc3ccc(C(F)(F)F)cc3F)C3CC3)c2F)[C@@H](O)C1 (single isomer, unassigned) [Example A7-22-1] |  |
| 3.4 nM | NC(=O)CN1CC[C@H](CNc2ncnc(N(Cc3ccc(C(F)(F)F)cc3F)C3CC3)c2F)[C@@H](O)C1 (single isomer, unassigned) [Example A7-22-2] |  |
| 81 nM | NC(=O)CN1CC[C@@H](CNc2ncnc(N(Cc3ccc(C(F)(F)F)nc3)C3CCC3)c2F)[C@H](O)C1 (single isomer, unassigned) [Example A7-23-1] |  |
| 630 nM | NC(=O)CN1CC[C@@H](CNc2ncnc(N(Cc3ccc(C(F)F)nc3)C3CC3)c2F)[C@H](O)C1 (single isomer, unassigned) [Example A7-25-1] |  |
| 35 nM | CC(F)(F)c1ccc(CN(c2ncnc(NC[C@@H]3CCN(CC(N)=O)C[C@H]3O)c2F)C2CC2)cn1 (single isomer, unassigned) [Example A7-29-1] |  |
|  | NC(=O)CN1CCC(CO)(CNc2ncnc(N(Cc3ccc(C(F)(F)F)cc3)C3CC3)c2F)C(O)C1 (single isomer, unassigned) [Example C4-1-2, 2-(4-(((6-(Cyclopropyl(4-(trifluoromethyl)benzyl)amino)-5-fluoropyrimidin-4-yl)amino)methyl)-3-hydroxy-4-(hydroxymethyl)piperidin-1-yl)acetamide] | EC50 (compounds of the present disclosure, source: Table 2 herein, read-out: Gal4 assay EC50): < 100 nM |
| 61 nM | NC(=O)CN1CC[C@@](O)(CNc2ncnc(N(Cc3ccc(C(F)(F)F)cc3)C3CC3)c2F)[C@H](O)C1 (single isomer, unassigned) [Example D5-02-1-2] |  |
| 9.3 nM | CCN(Cc1ccc(C(F)(F)F)cc1F)c1ncnc(NC[C@]2(O)CCN(CC(N)=O)C[C@H]2O)c1F (single isomer, unassigned) [Example D5-03-1-2] |  |
| 160 nM | NC(=O)CN1CC[C@@H](CNc2ncnc(N(Cc3ccc(OC(F)F)cc3F)C3CCC3)c2F)[C@H](O)C1 (stereo in doubt) [Example A7-15, rac-2-((3R,4R)-4-(((6-(cyclobutyl(4-(difluoromethoxy)-2-fluorobenzyl)amino)-5-fluoropyrimidin-4-yl)amino)methyl)-3-hydroxypiperidin-1-yl)acetamide] |  |
| 310 nM | NC(=O)CN1CC[C@H](CNc2ncnc(N(Cc3ccc(OC(F)F)cc3F)C3CCC3)c2F)[C@@H](O)C1 (stereo in doubt) [Example A7-15-2, rel-2-((3R,4R)-4-(((6-(cyclobutyl(4-(difluoromethoxy)-2-fluorobenzyl)amino)-5-fluoropyrimidin-4-yl)amino)methyl)-3-hydroxypiperidin-1-yl)acetamide] |  |
| 19 nM | NC(=O)CN1CC[C@@H](CNc2ncnc(N(Cc3ccc(C(F)(F)F)cc3)C3CCC3)c2F)[C@H](O)C1 (stereo in doubt) [Example A7-16, rac-2-((3R,4R)-4-(((6-(cyclobutyl(4-(trifluoromethyl)benzyl)amino)-5-fluoropyrimidin-4-yl)amino)methyl)-3-hydroxypiperidin-1-yl)acetamide] |  |
| 22 nM | NC(=O)CN1CC[C@H](CNc2ncnc(N(Cc3ccc(C(F)(F)F)cc3)C3CCC3)c2F)[C@@H](O)C1 (stereo in doubt) [Example A7-16-2, rel-2-((3R,4R)-4-(((6-(cyclobutyl(4-(trifluoromethyl)benzyl)amino)-5-fluoropyrimidin-4-yl)amino)methyl)-3-hydroxypiperidin-1-yl)acetamide] |  |
| 330 nM | NC(=O)CN1CC[C@@H](CNc2ncnc(N(Cc3ccc(C(F)F)nc3)C3CC3)c2F)[C@H](O)C1 (stereo in doubt) [Example A7-25, rac-2-((3R,4R)-4-(((6-(cyclopropyl((6-(difluoromethyl)pyridin-3-yl)methyl)amino)-5-fluoropyrimidin-4-yl)amino)methyl)-3-hydroxypiperidin-1-yl)acetamide] |  |
| 320 nM | NC(=O)CN1CC[C@H](CNc2ncnc(N(Cc3ccc(C(F)F)nc3)C3CC3)c2F)[C@@H](O)C1 (stereo in doubt) [Example A7-25-2, rel-2-((3R,4R)-4-(((6-(cyclopropyl((6-(difluoromethyl)pyridin-3-yl)methyl)amino)-5-fluoropyrimidin-4-yl)amino)methyl)-3-hydroxypiperidin-1-yl)acetamide] |  |
